# Measured values taken from patent US20240131007A1, “METHODS AND COMPOSITIONS FOR PICORNAVIRUS ANTI-VIRAL AGENTS” (University of Connecticut, priority 2022, published 2024).
# pEC50, pIC50: −log10 of the molar value. “Also recorded” adds a separate entry of the source. Like-named read-outs stand apart in the source and are kept apart here.
# Tests used:
# EV-A71 Δ2C^116-329 [1] = target: T1, EV-A71 Δ2C^116-329 (Human enterovirus 71, UniProt Q66478); assay: biochemical; format: biochemical
# T1 construct: EV-A71 Δ2C (amino acids 116-329) was designed with; made in house; host or cells: E. coli Rosetta 2(DE3) pLysS, pMALc5x vector
# T1 sequence (Q66478 1227-1440, stated change not applied): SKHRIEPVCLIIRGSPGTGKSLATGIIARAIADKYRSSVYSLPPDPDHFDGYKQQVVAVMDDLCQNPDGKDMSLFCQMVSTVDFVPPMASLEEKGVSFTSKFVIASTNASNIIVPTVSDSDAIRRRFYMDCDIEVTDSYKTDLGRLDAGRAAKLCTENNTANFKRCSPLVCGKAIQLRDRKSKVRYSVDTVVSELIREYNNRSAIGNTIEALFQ
# EV-A71 = assay: CPE inhibition assay (Cell Titer Glo) against EV-A71 in Vero cells; format: cell-based, Enterovirus A71; conditions: for pIC50: Enterovirus A, EVA71, EV-A71, Vero cells
# EV-A71 Δ2C^116-329 [2] = target: T1, EV-A71 Δ2C^116-329; format: binding; conditions: 0.02 μM to 200 μM compound
# EV-D68 = assay: CPE inhibition assay against EV-D68 in Vero cells; format: cell-based; conditions: Enterovirus D, EVD68, read-out: IC50 for virus induced CPE inhibition
# [3] = tested on: poliovirus Mahoney strain; assay: microbe, parasite or virus in culture; format: cell-based; conditions: Enterovirus C, Vero, read-out: IC50 for virus induced CPE inhibition
# [4] = tested on: coxsackievirus-B3 (CV-B3); assay: CPE inhibition assay against CV-B3 in HeLa cells; format: cell-based
# PV-1 = format: cell-based, Poliovirus
# CV-B3 = assay: NIAID cytopathic effect assay, CV-B3; format: cell-based, Coxsackievirus B3
# [5] = tested on: Eastern equine encephalitis virus; format: cell-based
# human echovirus-11 = assay: NIAID cytopathic effect assay, human echovirus-11; format: cell-based
# human echovirus-30 = assay: NIAID cytopathic effect assay, human echovirus-30; format: cell-based
# influenza A (H1N1) = assay: NIAID cytopathic effect assay, influenza A (H1N1); format: cell-based
# West Nile virus = assay: NIAID cytopathic effect assay, West Nile virus; format: cell-based
# [6] = tested on: Middle East Respiratory Syndrome; format: cell-based
# in vitro [7] = conditions: African green monkey
# in vitro [8] = assay: in vitro
# EV-A71 replicon = EV-A71 replicon assay in HeLa cells; conditions: 1, 5 or 25 μM, 14 hours post transfection
# EV-71 [9] = assay: microbe, parasite or virus in culture; conditions: Enterovirus A, EV71, read-out: EC90 μM
# [10] = NIAID secondary assay, Virus Yield Reduction, EV-68
# EV-68 [11] = assay: as above; conditions: Enterovirus D, EV68, read-out: EC90 μM
# [12] = NIAID secondary assay, Neutral Red (CPE/Tox), EV-71
# EV-71 [13] = assay: as above; conditions: Enterovirus A, EV71, read-out: EC50 μM
# [14] = NIAID secondary assay, Neutral Red (CPE/Tox), EV-68
# EV-68 [15] = assay: as above; conditions: Enterovirus D, EV68, read-out: EC50 μM
# [16] = NIAID Antiviral Program for Pandemics primary assay (CPE/Tox), EV-71; conditions: CC50 µM, primary assay, EV-71
# EV-71 [17] = assay: as above; conditions: Enterovirus A; for EC50: EV71, read-out: EC50 μM, primary assay, EV-71
# [18] = NIAID Antiviral Program for Pandemics primary assay (CPE/Tox), EV-68; conditions: CC50 µM, primary assay, EV-68
# EV-68 [19] = assay: as above; conditions: Enterovirus D; for EC50: EV68, read-out: EC50 μM, primary assay, EV-68
compound,measurement,setting,value
"Cc1ccc2[nH]c(-c3ccc(NC(=O)c4cccs4)cc3)nc2c1 [Compound 36, N-[4-(5-methyl-1H-benzimidazol-2-yl)phenyl]-2-thiophenecarboxamide]",pIC50,EV-A71 Δ2C^116-329 [1],4.63
same,dose dependence of inhibition of the ATPase function of Δ2C^116-329,EV-A71 Δ2C^116-329 [1]; dose response,clear dose-dependent response
same,Selectivity Index,EV-A71,29.59
same,selectivity index,EV-A71,29.6
same,pIC50,EV-A71; read-out: IC50 for inhibition of virus-induced CPE,5.58
same,pIC50,"EV-A71; Table 8, virus-induced CPE, read-out: IC50",5.58
same,shift in melting temperature (Tm) of Δ2C^116-329,EV-A71 Δ2C^116-329 [2],dose-dependent increase in the Tm
same,pIC50,EV-D68,6.07
same,pIC50,[3],5.77
same,inhibition of CV-B3,[4],did not inhibit; also recorded: not active
same,activity against PV-1,PV-1,no activity
same,activity against CV-B3,CV-B3,no activity
same,activity against Eastern equine encephalitis virus,[5],no activity
same,activity against human echovirus-11,human echovirus-11,no activity
same,activity against human echovirus-30,human echovirus-30,no activity
same,activity against influenza A (H1N1),influenza A (H1N1),no activity
same,activity against West Nile virus,West Nile virus,no activity
same,activity against Middle East Respiratory Syndrome,[6],no activity
same,CC50 at 3 days,in vitro [7]; CC50,78.7 µM
same,CC50 at 3 days,in vitro [7]; CC50 (μM),78.7 µM
same,CC50,in vitro [8],27 µM
same,number of reporter positive cells compared with the untreated control,EV-A71 replicon,no statistically significant difference
same,EC90,EV-71 [9],3.2 µM
same,CC50,[10],9.4 µM
same,EC90,EV-68 [11],0.59 µM
same,CC50,[12],25 µM
same,EC50,EV-71 [13],1.7 µM
same,CC50,[14],3.5 µM
same,EC50,EV-68 [15],0.52 µM
same,CC50,[16]; Neutral Red (CPE/Tox),42 µM
same,CC50,[16]; Visual (CPE/Tox),32 µM
same,EC50,EV-71 [17]; Neutral Red (CPE/Tox),4.7 µM
same,EC50,EV-71 [17]; Visual (CPE/Tox),> 32 µM
same,pEC50,"EV-71 [17]; EV71|EVA71, read-out: EC50 against EV-A71, text, primary cytopathic effect assay",5.38
same,CC50,[18]; Neutral Red (CPE/Tox),9 µM
same,CC50,[18]; Visual (CPE/Tox),24 µM
same,EC50,EV-68 [19]; Neutral Red (CPE/Tox),0.39 µM
same,EC50,EV-68 [19]; Visual (CPE/Tox),0.52 µM
same,pEC50,"EV-68 [19]; EV68|EVD68, read-out: EC50 against EV-D68, text, primary cytopathic effect assay",6.28 to 6.41
